Where a name gives a salt, the structure may show the parent alone. Read-outs that look alike come from different tables or passages of the source.
Key:
HO-2 (rat brain) = target: T1, HO-2 (rat brain) (Rattus norvegicus, UniProt P23711); experiment: HO enzymatic activity in rat brain microsomal fraction (CO formed from methemalbumin, gas chromatography); assay type: biochemical
T1 construct: brain microsomes were used as a source of HO-2; from tissue; host or cells: brain microsomal fraction of adult male Sprague-Dawley rats
T1 sequence (P23711 1-315): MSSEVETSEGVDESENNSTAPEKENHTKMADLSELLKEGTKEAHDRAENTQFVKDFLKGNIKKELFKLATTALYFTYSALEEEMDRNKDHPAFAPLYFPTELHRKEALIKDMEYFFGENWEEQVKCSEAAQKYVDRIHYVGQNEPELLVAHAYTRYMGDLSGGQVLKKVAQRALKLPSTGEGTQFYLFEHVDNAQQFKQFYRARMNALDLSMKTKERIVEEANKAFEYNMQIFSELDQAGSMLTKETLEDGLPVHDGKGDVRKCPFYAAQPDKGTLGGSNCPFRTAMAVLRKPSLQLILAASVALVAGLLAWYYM

HO-1 (rat spleen) = target: T2, HO-1 (rat spleen) (Rattus norvegicus, UniProt P06762); experiment: HO enzymatic activity in rat spleen microsomal fraction (CO formed from methemalbumin, gas chromatography); assay type: biochemical
T2 construct: Spleen microsomes were used as a source of HO-1; from tissue; host or cells: spleen microsomal fraction of adult male Sprague-Dawley rats
T2 sequence (P06762 1-289): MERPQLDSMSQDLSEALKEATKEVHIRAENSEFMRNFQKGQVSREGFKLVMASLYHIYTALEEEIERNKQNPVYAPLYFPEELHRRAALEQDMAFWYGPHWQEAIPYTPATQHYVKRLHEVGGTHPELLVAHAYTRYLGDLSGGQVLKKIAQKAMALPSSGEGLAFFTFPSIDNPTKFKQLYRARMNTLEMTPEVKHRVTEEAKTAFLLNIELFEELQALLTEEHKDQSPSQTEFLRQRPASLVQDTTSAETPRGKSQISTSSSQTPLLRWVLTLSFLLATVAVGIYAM

[1] = rat brain microsomes, average ± standard deviation of replicate experiments, read-out: IC50 HO-2 (rat brain)/μM
[2] = rat spleen microsomes, average ± standard deviation of replicate experiments, read-out: IC50 HO-1 (rat spleen)/μM

Compound	IC50 (HO-2 (rat brain); [1]) [µM]	IC50 (HO-1 (rat spleen); [2]) [µM]	also measured
c1ccc(CCCCn2ccnc2)cc1 [1-(4-phenyl-butyl)-1H-imidazole hydrochloride]	> 100	3.5 ± 0.9	–
c1ccc(SCCCCn2ccnc2)cc1 [1-(4-phenylsulfanyl-butyl)-1H-imidazole hydrochloride]	5 ± 3	1.2 ± 0.2	–
O=C(Cn1ccnc1)c1ccc(-c2ccc(Br)cc2)cc1 [1-(4′-bromo-biphenyl-4-yl)-2-imidazol-1-yl-ethanone]	0.43 ± 0.07	1.5 ± 0.5	–
O=C(Cn1cncn1)c1ccc2c(c1)CCCC2 [1-(5,6,7,8-tetrahydro-naphthalen-2-yl)-2-[1,2,4]triazol-1-yl-ethanone]	4 ± 1	0.24 ± 0.04	–
O=C(CCc1ccccc1)Cn1cncc1Br [1-(5-Bromo-1H-imidazol-1-yl)-4-phenyl-2-butanone]	> 100	22 ± 2	–
CS(=O)(=O)c1nnnn1CC(=O)CCc1ccccc1 [1-(5-Methanesulfonyl-tetrazol-1-yl)-4-phenyl-butan-2-one]	> 100	> 100	–
CS(=O)(=O)c1nnn(CC(=O)CCc2ccccc2)n1 [1-(5-Methanesulfonyl-tetrazol-2-yl)-4-phenyl-butan-2-one]	> 100	> 100	–
CSc1ncnn1CC(=O)CCc1ccccc1 [1-(5-Methylsulfanyl-[1,2,4]triazol-1-yl)-4-phenyl-butan-2-one hydrochloride]	> 100	> 100	–
CSc1nnnn1CC(=O)CCc1ccccc1 [1-(5-Methylsulfanyl-tetrazol-1-yl)-4-phenyl-butan-2-one]	> 100	> 100	–
CSc1nnn(CC(=O)CCc2ccccc2)n1 [1-(5-Methylsulfanyl-tetrazol-2-yl)-4-phenyl-butan-2-one]	> 100	> 100	–
c1ccc(CCCCCn2ccnc2)cc1 [1-(5-phenyl-pentyl)-1H-imidazole hydrochloride]	20 ± 15	2.8 ± 0.5	–
Cl.c1cn(CC2OCCO2)cn1 [1-((1,3-Dioxolan-2-yl)methyl)-1H-imidazole hydrochloride]	–	–	IC50 HO-2 (rat brain)/μM (HO-2 (rat brain); rat brain microsomes, average ± standard deviation of replicate experiments): Inactive; IC50 HO-1 (rat spleen)/μM (HO-1 (rat spleen); rat spleen microsomes, average ± standard deviation of replicate experiments): Inactive
O=C(CCc1ccccc1)Cn1nc2ccccc2n1 [1-Benzotriazol-2-yl-4-phenyl-butan-2-one]	> 100	> 100	–
c1ccc(Cn2ccnc2)cc1 [1-Benzyl-1H-imidazole hydrochloride]	–	–	IC50 (HO-2 (rat brain)): > 100 µM; IC50 (HO-1 (rat spleen)): 44 ± 9 µM
O=C(Cn1cncn1)c1ccc(-c2ccccc2)cc1 [1-Biphenyl-4-yl-2-[1,2,4]triazol-1-yl-ethanone]	7 ± 4	0.74 ± 0.05	–
CC(C)c1ccc(CCC(=O)Cn2ccnc2)cc1 [1-Imidazol-1-yl-4-(4-isopropyl-phenyl)-butan-2-one hydrochloride]	0.9 ± 0.2	0.163 ± 0.009	–
Cc1ccc(CCC(=O)Cn2ccnc2)cc1 [1-Imidazol-1-yl-4-(4-methylphenyl)butan-2-one hydrochloride]	3.7 ± 0.1	0.76 ± 0.01	–
O=C(Cn1cncn1)c1ccc2ccccc2c1 [1-Naphthalen-2-yl-2-[1,2,4]triazol-1-yl-ethanone hydrochloride]	42 ± 10	0.7 ± 0.1	–
c1ccc(CCn2ccnc2)cc1 [1-Phenethyl-1H-imidazole]	> 100	72 ± 11	–
c1ccc(-n2ccnc2)cc1 [1-Phenyl-1H-imidazole hydrochloride]	> 100	> 100	–

Compound	IC50 (HO-2 (rat brain); [1]) [µM]	IC50 (HO-1 (rat spleen); [2]) [µM]	also measured
Clc1ccc(C2(Cn3ccnc3)OCCO2)c(Cl)c1 [1-[2-(2,4-dichloro-phenyl)-[1,3]dioxolan-2-ylmethyl]-1H-imidazole hydrochloride]	> 100	29 ± 14	–
Clc1ccc(C2(Cn3ccnc3)OCCO2)cc1Cl [1-[2-(3,4-dichloro-phenyl)-[1,3]dioxolan-2-ylmethyl]-1H-imidazole]	> 100	8 ± 2	–
Brc1cccc(C2(Cn3ccnc3)OCCO2)c1 [1-[2-(3-bromo-phenyl)-[1,3]dioxolan-2-ylmethyl]-1H-imidazole hydrochloride]	> 100	4 ± 0.7	–
c1ccc(Cc2ccc(C3(Cn4ccnc4)OCCO3)cc2)cc1 [1-[2-(4-benzyl-phenyl)-[1,3]dioxolan-2-ylmethyl]-1H-imidazole hydrochloride]	> 100	4.98 ± 0.08	–
Brc1ccc(C2(Cn3ccnc3)OCCO2)cc1 [1-[2-(4-bromo-phenyl)-[1,3]dioxolan-2-ylmethyl]-1H-imidazole hydrochloride]	> 100	12 ± 2	–
Clc1ccc(C2(Cn3cncn3)OCCO2)cc1 [1-[2-(4-chloro-phenyl)-[1,3]dioxolan-2-ylmethyl]-1H-[1,2,4]triazole]	> 100	68.7 ± 0.6	–
Clc1ccc(C2(Cn3ccnc3)OCCO2)cc1 [1-[2-(4-chloro-phenyl)-[1,3]dioxolan-2-ylmethyl]-1H-imidazole hydrochloride]	> 100	19 ± 3	–
FC(F)(F)c1ccc(CCCCn2ccnc2)cc1 [1-[4-(4-(Trifluoromethyl)phenyl)butyl]-1H-imidazole hydrochloride]	> 100	0.38 ± 0.09	–
O=C(CCn1ccnc1)C12CC3CC(CC(C3)C1)C2 [1-adamantan-1-yl-3-imidazol-1-yl-propan-1-one hydrochloride]	~100	3.5 ± 0.8	–
c1cn(CC23CC4CC(CC(C4)C2)C3)cn1 [1-adamantan-1-ylmethyl-1H-imidazole hydrochloride]	> 100	2.2 ± 0.5	–
O=C(CCCc1ccccc1)Cn1ccnc1 [1-imidazol-1-yl-5-phenyl-pentan-2-one hydrochloride]	6 ± 0.1	1.5 ± 0.2	–
O=C(CCc1ccccc1)CCn1ccnc1 [1-imidazol-1-yl-5-phenyl-pentan-3-one hydrochloride]	114 ± 56	28 ± 6	–
Cn1ccnc1 [1-methylimidazole hydrochloride, reference compound]	> 100	> 100	–
O=C(Cn1cncn1)c1cccc2ccccc12 [1-naphthalen-1-yl-2-[1,2,4]triazol-1-yl-ethanone hydrochloride]	16 ± 5	0.79 ± 0.04	–
c1ccc(CCC2(Cn3nccn3)OCCO2)cc1 [2-(2-Phenethyl-[1,3]dioxolan-2-ylmethyl)-2H-[1,2,3]triazole]	> 100	> 100	–
c1ccc(CCC2(Cn3ncnn3)OCCO2)cc1 [2-(2-Phenethyl-[1,3]dioxolan-2-ylmethyl)-2H-tetrazole hydrochloride]	> 100	72 ± 1	–
c1ccc(CCC2(Cn3ccnn3)OCCO2)cc1 [2-(2-phenethyl)-2-{(1H-[1,2,3]triazol-1-yl)methyl}-1,3-dioxolane hydrochloride]	> 100	> 100	–
c1ccc(CCC2(Cn3cncn3)OCCO2)cc1 [2-(2-phenethyl)-2-{(1H-[1,2,4]triazol-1-yl)methyl}-1,3-dioxolane hydrochloride]	> 100	13 ± 2	–
O=C(Cn1ccnc1)c1ccc2ccc3cccc4ccc1c2c34 [2-Imidazol-1-yl-1-pyren-1-yl-ethanone hydrochloride]	> 100	14 ± 3	–

Reference: US20140155445A1, “Compounds and Methods for Treating Cancer and Diseases of the Central Nervous System” (Osta Biotechnologies Inc., priority 2007, published 2014)
